Laboratory results: patent US4870002A, “Method of prevention of oxidative injury to cells” (priority 1985, dated 1989)

What was measured:
[1] = tested on: L5178Y murine lymphosarcoma cells; test: Survival after gamma irradiation by colony formation in soft agar; type: cell-based
Protocol: The remainder of the cell suspension after irradiation was used for determination of survival by colony formation in soft agar. For each dose, based on estimated survival probability, different numbers of cells were distributed in soft agar suspension (0.4% DIFCO Noble Agar) into 100 mm petri dishes. The dishes were briefly chilled to gel the agar, and then after brief warming in the laminar flow hood, placed in the 37° C. humidified CO2 incubator. The dishes were incubated for 11 days, and the number of colonies were determined using an Artek Automatic Colony Counter.
For the control and each 3-aminotyrosine and radiation dose, the percent cloning efficiency (% CE) was determined by dividing the number of colonies counted at 11 days by the number of cells seeded into the agar, times 100. The 0 dose % CE value was taken to be 100% survival for that chemical. The percent (%) survival reported was calculated by dividing the % CE after a given dose of radiation by the 0 dose % CE, times 100.
THMG/THG treated L5178Y cells were mass cultured and the cell density determined. Aliquots of the cell suspension with enough cells to give 300,000 cells per ml in 60 ml (1.8×10^7 cells) were distributed into three 50 ml centrifuge tubes, and after centrifugation, the original growth medium was discarded. The cells were resuspended in GIBCO custom formulation medium which had been prepared without phenol red. The cells were then washed one more time by centrifugation and resuspended again in 10 ml of the phenol red-free medium. These 10 ml suspensions of cells containing 1.8×10^7 cells were then transferred into three flasks already containing 50 ml of phenol red-free medium, distilled water, and either 100 nanomoles/ml or 2 micromoles/ml solutions of 3-aminotyrosine. The exposure system was treated as light sensitive (i.e., procedures were performed under gold light or reduced lighting).
Immediately after irradiation was completed, the cells were centrifuged, washed twice with F10p, and resuspended in 10 ml of F10p. The cell density was again determined by Coulter counter. […] After 11 days incubation at 37° C., colonies were counted and cell survival was determined.

[2] = tested on: human KBE epidermoid carcinoma cells; test: Survival after gamma irradiation by colony formation; type: cell-based; conditions: for radioprotection, in words: low dose
Protocol: In those experiments performed with media containing phenol red, this medium was replaced (in
each flask) with 10 ml of fresh medium; the flasks were then reincubated at 37° C. for 1 hour. After this time, under yellow light, 0.05 ml aliquots of distilled water or solutions of 3-aminotyrosine were injected to give 1:200 dilutions. […] Flasks were irradiated at 0, 250, 500, or 1000 rads at room temperature as previously described. Efforts were made to keep light exposure to a minimum. For those flasks irradiated for 8 min (10 Gy), the temperature in the flasks would decrease during that interval to 30° C.
Immediately after the irradiations were complete, the attached cells were washed two times with Saline A salt solution, the trypsinized using standard procedures with 1.5 ml of trypsin-EDTA (GIBCO 610-5300). The cells were declumped after inactivation of the trypsin with fresh medium, and the cell density determined by Coulter counter. Cell dilutions of appropriate densities were made with fresh medium in sterile plastic conical centrifuge tubes, and 5 ml aliquots were seeded at two different dilutions for each treatment flask into fresh T-25 flasks (4 replicate flasks at each cell dilution). The flasks were all incubated for 7 days, at which time the old medium was aspirated and the cells were fixed in situ with 100% methanol. The colonies were then stained with 0.3% methylene blue, and rinsed with distilled water. After air drying, colonies greater than 1 mm in diameter were scored as viable colonies. The cloning efficiency in each flask was determined as described for the L5178Y cells above.
In one experiment, treatment with 3-aminotyrosine was performed using custom formulated Earle's BME medium without phenol red (GIBCO 85-0078). Prior to addition of 3-aminotyrosine, cells were washed free of the standard growth medium using Saline A without phenol red.

[3] = Zero hour incubation, 250 rads, 2 micromoles/ml
[4] = Zero hour incubation, 250 rads, 100 nanomoles/ml
[5] = Zero hour incubation, 500 rads, 2 micromoles/ml
[6] = Zero hour incubation, 500 rads, 100 nanomoles/ml
[7] = Zero hour incubation, 1000 rads, 2 micromoles/ml
[8] = Zero hour incubation, 1000 rads, 100 nanomoles/ml

Nc1cc(C[C@H](N)C(=O)O)ccc1O [3-aminotyrosine, 3-amino-L-tyrosine]
Ratio of Percent Survival, 3-Aminotyrosine/Control ([1]; Sixteen hour incubation, 250 rads, 1000 cells seeded, 2 micromoles/ml): 0.84 | Ratio of Percent Survival, 3-Aminotyrosine/Control ([1]; Sixteen hour incubation, 250 rads, 1000 cells seeded, 100 nanomoles/ml): 0.81 | Ratio of Percent Survival, 3-Aminotyrosine/Control ([1]; Sixteen hour incubation, 250 rads, 2000 cells seeded, 2 micromoles/ml): 0.94 | Ratio of Percent Survival, 3-Aminotyrosine/Control ([1]; Sixteen hour incubation, 250 rads, 2000 cells seeded, 100 nanomoles/ml): 0.85 | Ratio of Percent Survival, 3-Aminotyrosine/Control ([1]; Sixteen hour incubation, 500 rads, 1000 cells seeded, 2 micromoles/ml): 1.20 | Ratio of Percent Survival, 3-Aminotyrosine/Control ([1]; Sixteen hour incubation, 500 rads, 1000 cells seeded, 100 nanomoles/ml): 0.63 | Ratio of Percent Survival, 3-Aminotyrosine/Control ([1]; Sixteen hour incubation, 500 rads, 2000 cells seeded, 2 micromoles/ml): 1.59 | Ratio of Percent Survival, 3-Aminotyrosine/Control ([1]; Sixteen hour incubation, 500 rads, 2000 cells seeded, 100 nanomoles/ml): 0.98 | Ratio of Percent Survival, 3-Aminotyrosine/Control ([1]; Sixteen hour incubation, 1000 rads, 2.5 × 10^5 cells seeded, 2 micromoles/ml): 1.95 | Ratio of Percent Survival, 3-Aminotyrosine/Control ([1]; Sixteen hour incubation, 1000 rads, 2.5 × 10^5 cells seeded, 100 nanomoles/ml): 4.91 | Ratio of Percent Survival, 3-Aminotyrosine/Control ([1]; Sixteen hour incubation, 1000 rads, 5.0 × 10^5 cells seeded, 2 micromoles/ml): 3.22 | Ratio of Percent Survival, 3-Aminotyrosine/Control ([1]; Sixteen hour incubation, 1000 rads, 5.0 × 10^5 cells seeded, 100 nanomoles/ml): 1.27 | Ratio of Percent Survival, 3-Aminotyrosine/Control [1, 3]: 0.89 | Ratio of Percent Survival, 3-Aminotyrosine/Control [1, 4]: 0.85 | Ratio of Percent Survival, 3-Aminotyrosine/Control [1, 5]: 0.63 | Ratio of Percent Survival, 3-Aminotyrosine/Control [1, 6]: 0.70 | Ratio of Percent Survival, 3-Aminotyrosine/Control [1, 7]: 0.51 | Ratio of Percent Survival, 3-Aminotyrosine/Control [1, 8]: 0.56 | effect on cell survival after irradiation, in words ([1]; cells preincubated for 16 hours): protective of cell survival | Ratio of Percent Survival, 3-Aminotyrosine/Control ([2]; Twenty-Four Hour Incubation (No Phenol Red), 250 rads, 2 micromoles/ml): 1.08 | Ratio of Percent Survival, 3-Aminotyrosine/Control ([2]; Twenty-Four Hour Incubation (No Phenol Red), 250 rads, 100 nanomoles/ml): 0.79 | Ratio of Percent Survival, 3-Aminotyrosine/Control ([2]; Twenty-Four Hour Incubation (No Phenol Red), 500 rads, 2 micromoles/ml): 1.49 | Ratio of Percent Survival, 3-Aminotyrosine/Control ([2]; Twenty-Four Hour Incubation (No Phenol Red), 500 rads, 100 nanomoles/ml): 0.48 | Ratio of Percent Survival, 3-Aminotyrosine/Control ([2]; Twenty-Four Hour Incubation (No Phenol Red), 1000 rads, 2 micromoles/ml): 2.61 | Ratio of Percent Survival, 3-Aminotyrosine/Control ([2]; Twenty-Four Hour Incubation (No Phenol Red), 1000 rads, 100 nanomoles/ml): 2.32 | Ratio of Percent Survival, 3-Aminotyrosine/Control ([2]; Twenty-Four Hour Incubation (Phenol Red Present), 250 rads, 2 micromoles/ml): 1.28 | Ratio of Percent Survival, 3-Aminotyrosine/Control ([2]; Twenty-Four Hour Incubation (Phenol Red Present), 250 rads, 100 nanomoles/ml): 1.53 | Ratio of Percent Survival, 3-Aminotyrosine/Control ([2]; Twenty-Four Hour Incubation (Phenol Red Present), 500 rads, 2 micromoles/ml): 2.91 | Ratio of Percent Survival, 3-Aminotyrosine/Control ([2]; Twenty-Four Hour Incubation (Phenol Red Present), 500 rads, 100 nanomoles/ml): 1.36 | Ratio of Percent Survival, 3-Aminotyrosine/Control ([2]; Twenty-Four Hour Incubation (Phenol Red Present), 1000 rads, 2 micromoles/ml): 4.65 | Ratio of Percent Survival, 3-Aminotyrosine/Control ([2]; Twenty-Four Hour Incubation (Phenol Red Present), 1000 rads, 100 nanomoles/ml): 1.63 | Ratio of Percent Survival, 3-Aminotyrosine/Control [2, 3]: 1.70 | Ratio of Percent Survival, 3-Aminotyrosine/Control [2, 4]: 0.94 | Ratio of Percent Survival, 3-Aminotyrosine/Control [2, 5]: 1.25 | Ratio of Percent Survival, 3-Aminotyrosine/Control [2, 6]: 0.81 | Ratio of Percent Survival, 3-Aminotyrosine/Control [2, 7]: 2.26 | Ratio of Percent Survival, 3-Aminotyrosine/Control [2, 8]: 0.99 | effect on survival after irradiation, in words ([2]; high concentration, added 24 hours prior to exposure, medium containing phenol red): radioprotective effect | radioprotection, in words ([2]; 10 minute preincubations (0 hours)): no radioprotection | radioprotection, in words ([2]; pre-incubation for 24 hours): low-dose radioprotection
